This assay addresses T1, mTAS1R2-WT/mTAS1R3-I60T (Mus musculus, UniProt Q925D8+Q925I4, I60T).
T1 construct: expressed in transfected cells; host or cells: HEK293T-Gα16gust44
T1 sequence (Q925I4 20-843): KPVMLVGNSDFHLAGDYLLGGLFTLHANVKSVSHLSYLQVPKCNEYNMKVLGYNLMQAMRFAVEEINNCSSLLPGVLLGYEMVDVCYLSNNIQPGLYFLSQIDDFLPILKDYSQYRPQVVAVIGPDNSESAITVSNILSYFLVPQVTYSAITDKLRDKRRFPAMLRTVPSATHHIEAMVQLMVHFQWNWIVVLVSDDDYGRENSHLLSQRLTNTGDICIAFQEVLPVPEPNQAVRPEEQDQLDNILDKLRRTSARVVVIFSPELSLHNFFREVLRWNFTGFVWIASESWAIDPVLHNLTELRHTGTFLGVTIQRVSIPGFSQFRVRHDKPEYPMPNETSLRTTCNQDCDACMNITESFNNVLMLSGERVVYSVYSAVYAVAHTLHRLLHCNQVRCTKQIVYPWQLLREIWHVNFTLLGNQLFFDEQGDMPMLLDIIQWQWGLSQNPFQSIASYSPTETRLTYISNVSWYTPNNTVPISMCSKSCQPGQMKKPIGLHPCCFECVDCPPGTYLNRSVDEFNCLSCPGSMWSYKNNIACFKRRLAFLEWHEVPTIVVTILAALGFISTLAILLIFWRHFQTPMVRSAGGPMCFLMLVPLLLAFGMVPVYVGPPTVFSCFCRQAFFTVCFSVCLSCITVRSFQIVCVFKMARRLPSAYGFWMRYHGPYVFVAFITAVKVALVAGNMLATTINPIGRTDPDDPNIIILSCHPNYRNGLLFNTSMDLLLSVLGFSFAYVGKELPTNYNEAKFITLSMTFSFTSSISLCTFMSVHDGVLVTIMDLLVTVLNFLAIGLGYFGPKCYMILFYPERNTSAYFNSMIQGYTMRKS
T1 sequence (Q925D8 21-858 I60T): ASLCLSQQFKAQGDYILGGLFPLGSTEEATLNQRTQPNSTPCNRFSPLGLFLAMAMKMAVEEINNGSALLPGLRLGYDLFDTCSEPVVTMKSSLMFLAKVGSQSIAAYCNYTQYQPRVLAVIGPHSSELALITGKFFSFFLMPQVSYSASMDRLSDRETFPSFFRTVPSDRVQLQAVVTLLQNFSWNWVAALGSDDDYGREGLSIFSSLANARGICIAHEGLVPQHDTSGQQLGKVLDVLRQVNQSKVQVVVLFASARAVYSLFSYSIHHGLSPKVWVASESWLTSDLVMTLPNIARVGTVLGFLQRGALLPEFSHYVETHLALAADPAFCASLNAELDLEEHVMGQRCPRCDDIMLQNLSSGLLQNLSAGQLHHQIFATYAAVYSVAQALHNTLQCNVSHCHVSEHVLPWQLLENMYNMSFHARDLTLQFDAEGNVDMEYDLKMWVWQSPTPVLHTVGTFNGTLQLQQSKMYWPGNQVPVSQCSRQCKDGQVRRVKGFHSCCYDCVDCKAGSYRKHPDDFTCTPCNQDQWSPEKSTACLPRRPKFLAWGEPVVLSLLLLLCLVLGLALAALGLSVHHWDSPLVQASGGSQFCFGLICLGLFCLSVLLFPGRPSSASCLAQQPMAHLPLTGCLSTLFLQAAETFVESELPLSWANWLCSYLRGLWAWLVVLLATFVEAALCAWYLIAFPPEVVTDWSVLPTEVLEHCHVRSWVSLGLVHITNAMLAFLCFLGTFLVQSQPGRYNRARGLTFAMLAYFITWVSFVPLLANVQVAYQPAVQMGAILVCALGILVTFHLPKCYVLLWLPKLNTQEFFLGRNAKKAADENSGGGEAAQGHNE
The assay can be described thus: Calcium mobilisation assay, HEK293T-Gα16gust44 cells, mouse TAS1R3-I60T variant. The assay is classed as cell-based. To be noted: "-": no activation; for EC50 / Max ΔF/F0: mTAS1R2-WT + mTAS1R3-I60T; for Max ΔF/F0: maximal signal amplitude; for R1 = Variant EC50/WT EC50: mTAS1R3-I60T vs mTAS1R3-WT. The procedure: The HEK293T cells were kindly provided by Jay P. Slack (Givaudan Flavors Corporation; Cincinnati, OH, USA). HEK293T cells stably transfected with Gα16gust44 [43, 67] were seeded in poly-D-lysine-coated clear-bottom black 96-well plates (0.35 × 10^5 cells/well) in high-glucose DMEM supplemented with 2 mM GlutaMAX, 10% dialysed foetal bovine serum with penicillin/streptomycin and G418 (400 μg/mL) at 37 °C and 6.3% CO2 in a humidified atmosphere as previously reported. […] As a negative control, HEK293T cells were mock-transfected with the empty expression vector. After a further 24 h of incubation, the HEK293T cells were washed with C1 buffer (130 mM NaCl, 5 mM KCl, 10 mM HEPES pH 7.4 and 2 mM CaCl2). The 96-well plates containing the cells were then stimulated with sweet-tasting compounds. […] Different concentration ranges were tested depending on the sweet compound injected. The Ca^2+ changes were expressed as fractional changes in fluorescent light intensity: ΔF/F = (F − F0)/F0, where F was the fluorescent light intensity at each point, and F0 was the value of emitted fluorescent light prior to stimulus application. To calculate dose–response relationships, the changes in fluorescence upon stimulus application were averaged, mock-subtracted and baseline-corrected. The dose–response data obtained were adjusted using a 4-parameter logistic equation. The half-maximal effective concentrations (EC50 values) and maximal signal amplitudes were calculated using SigmaPlot software (version 15.0) (Systat Software; San Jose, CA, USA).
HEK293T-Gα16gust44 cells were transiently cotransfected with pcDNA6-MAX-mTAS1R2-FLAG, pcDNA4-MAX-mTAS1R3-WT-FLAG or pcDNA4-MAX-mTAS1R3-I60T-FLAG, and pCMV-GCaMP5G as previously described in detail. After 24 h, the cells were washed with C1 buffer and stimulated with a logarithmically increasing range of sweetener concentrations. Calcium responses during automated application were monitored using a FlexStation®3 Multi-Mode microplate reader. The dose–response curves, EC50 values and maximal signal amplitudes were calculated as previously described.
For in vitro calcium mobilisation assay performed on hTAS1R2-SNPs, hTAS1R3-SNPs and mTAS1R3-I60T, 6 to 7 concentrations were tested for each sweet compound, plus buffer alone. All concentration–receptor combinations were measured in duplicate, and each experiment was repeated at least 4 times (8 wells/concentration). Results were expressed for each concentration as ΔF/F mean ± SEM and represented as dose–response curves.
On the technique in general: A change in cytosolic calcium serves as a functional read-out for many receptors and channels.

For orientation: EC50 means the midpoint of the concentration-response curve.

Each structure is given as a SMILES string.

As for `C=C1C[C@@]23CC[C@H]4[C@@](C)(CCC[C@@]4(C)C(=O)O[C@@H]4O[C@H](CO)[C@@H](O)[C@H](O[C@@H]5O[C@H](CO)[C@@H](O)[C@H](O)[C@H]5O)[C@H]4O[C@@H]4O[C@H](CO)[C@@H](O)[C@H](O)[C@H]4O)[C@@H]2CC[C@]1(O[C@@H]1O[C@H](CO)[C@@H](O)[C@H](O[C@@H]2O[C@H](CO)[C@@H](O)[C@H](O)[C@H]2O)[C@H]1O[C@@H]1O[C@H](CO)[C@@H](O)[C@H](O)[C@H]1O)C3` [Rebaudioside M, rebaudioside M], the EC50 was 73 ± 2 µM, the “Max ΔF/F0” value was determined as 0.71 ± 0.01 and the “R1 = Variant EC50/WT EC50” value worked out at 1.7.
For `OC[C@H]1O[C@H](O[C@]2(CCl)O[C@H](CCl)[C@@H](O)[C@@H]2O)[C@H](O)[C@@H](O)[C@H]1Cl` [Sucralose], in that order: 1520 ± 56 µM, 1.47 ± 0.03 and 2.0.
For `CC1=CC(=O)NS(=O)(=O)O1` [Acesulfame K, acesulfame K], in that order: 744 ± 19 µM, 1.03 ± 0.02 and 1.7.
The matching figures for `C[C@H](CC[C@@H](O[C@@H]1O[C@H](CO[C@@H]2O[C@H](CO)[C@@H](O)[C@H](O)[C@H]2O)[C@@H](O)[C@H](O)[C@H]1O[C@@H]1O[C@H](CO)[C@@H](O)[C@H](O)[C@H]1O)C(C)(C)O)[C@H]1CC[C@@]2(C)[C@@H]3CC=C4[C@@H](CC[C@H](O[C@@H]5O[C@H](CO[C@@H]6O[C@H](CO)[C@@H](O)[C@H](O)[C@H]6O)[C@@H](O)[C@H](O)[C@H]5O)C4(C)C)[C@]3(C)[C@H](O)C[C@]12C` [Mogroside V, mogroside V]: 225 ± 25 µM, 0.50 ± 0.03 and 1.7.

The values above are taken from publication PMC11945486, “TAS1R2/TAS1R3 Single-Nucleotide Polymorphisms Affect Sweet Taste Receptor Activation by Sweeteners: The SWEET Project” (Nutrients, 2025).
